Results from patent US11285156B2, “Substituted piperazines as KRAS G12C inhibitors” (Amgen Inc., priority 2018, dated 2022).

Legend:
[1] = system: Phosphorylation of ERK1/2 in A549 cells; experiment: Phospho-ERK1/2 MSD assay in A549 cells; type: cell-based; settings: Homo sapiens, A549, 2 h, read-out: p-ERK IC50 (2 h, A549; μM), 2 h compound treatment, A549 cells, EGF stimulated
How it was run: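 MSD electrochemiluminescent read-out of phospho-ERK1/2 in RIPA lysates. Cells in RPMI 1640 with 10% FBS received titrated compound for 2 or 4 h, then 10 ng/mL EGF for 10 min before ice-cold PBS wash and lysis.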

[2] = system: Phosphorylation of ERK1/2 in MIA PaCa-2 cells; experiment: Phospho-ERK1/2 MSD assay in MIA PaCa-2 cells; type: cell-based; settings: Homo sapiens, MIA PaCa-2, 2 h, read-out: p-ERK IC50 (2 h, MiaPaCa-2; μM), 2 h compound treatment, MIA PaCa-2 cells, EGF stimulated
How it was run: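 Phospho-ERK1/2 measured by MSD electrochemiluminescence kit in RIPA lysates of MIA PaCa-2 cells. Cells were treated with compound titrations for 2 or 4 h at 37 °C, 5% CO2, followed by a 10 min pulse of 10 ng/mL EGF.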

[3] = biological target: GDP-bound KRAS protein (aa 1-169), containing both G12C and C118A amino acid substitutions (Homo sapiens (Human), UniProt P01116, C118A/G12C); experiment: Coupled nucleotide exchange assay (SOS-mediated nucleotide exchange, AlphaScreen); type: biochemical; settings: read-out: Coupled exchange IC50 (5 min; μM); 5 min compound pre-incubation
Sequence of GDP-bound KRAS protein (aa 1-169), containing both G12C and C118A amino acid substitutions (P01116 other isoform, or with tags, fused parts or gaps G12C/C118A): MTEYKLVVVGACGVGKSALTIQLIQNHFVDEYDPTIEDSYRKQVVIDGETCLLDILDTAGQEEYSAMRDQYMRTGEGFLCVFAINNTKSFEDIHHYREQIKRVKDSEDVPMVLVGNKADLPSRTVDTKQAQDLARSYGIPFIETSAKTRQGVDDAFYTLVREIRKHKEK

**Q.** What does the source list for `C=CC(=O)N1C[C@H](C)N(c2nc(=O)n(-c3c(C)ccnc3C(C)C)c3nc(-c4c(F)cccc4C#N)c(Cl)cc23)C[C@H]1C` (atropisomer, axis not shown; (M)) [Example 92-40, (M)-2-[6-Chloro-4-[(2S,5R)-2,5-dimethyl-4-prop-2-enoyl-piperazin-1-yl]-1-(2-isopropyl-4-methyl-3-pyridyl)-2-oxo-pyrido[2,3-d]pyrimidin-7-yl]-3-fluoro-benzonitrile]?
**A.** IC50 [1]: > 7.5 µM; IC50 [2]: 0.14 µM; IC50 [3]: 0.244 µM

**Q.** Which IC50 [1] does the source give for `C=CC(=O)N1C[C@H](C)N(c2nc(=O)n(-c3c(C)ccnc3C(C)C)c3nc(-c4ccccc4C(C)=O)c(Cl)cc23)C[C@H]1C` (atropisomer, axis not shown; (M)) [Example 92-41, (M)-7-(2-Acetylphenyl)-6-chloro-4-[(2S,5R)-2,5-dimethyl-4-prop-2-enoyl-piperazin-1-yl]-1-(2-isopropyl-4-methyl-3-pyridyl)pyrido [2,3-d]pyrimidin-2-one] here?
**A.** Its IC50 is 3.75 µM.

**Q.** What about the IC50 [2] of the same compound?
**A.** The IC50 was 0.075 µM.

**Q.** What about the IC50 [3] of the same compound?
**A.** The IC50 was 0.117 µM.

**Q.** `C=CC(=O)N1C[C@H](C)N(c2nc(=O)n(-c3c(C)ccnc3C(C)C)c3nc(-c4ccccc4)c(Cl)cc23)C[C@H]1C` (atropisomer, axis not shown; (M)) [Example 92-42, (M)-6-Chloro-4-[(2S,5R)-2,5-dimethyl-4-prop-2-enoyl-piperazin-1-yl]-1-(2-isopropyl-4-methyl-3-pyridyl)-7-phenyl-pyrido[2,3-d]pyrimidin-2-one] was tested. Which IC50 [1] did it give?
**A.** The IC50 was greater than 7.5 µM.

**Q.** And the IC50 [2]?
**A.** Its IC50 is 0.08 µM.

**Q.** And the IC50 [3]?
**A.** The IC50 was 0.117 µM.

**Q.** Which results are given for `C=CC(=O)N1C[C@H](C)N(c2nc(=O)n(-c3c(C)ccnc3C(C)C)c3nc(-c4cc(Cl)ccc4F)c(Cl)cc23)C[C@H]1C` (atropisomer, axis not shown; (M)) [Example 92-44, (M)-6-Chloro-7-(5-chloro-2-fluoro-phenyl)-4-[(2S,5R)-2,5-dimethyl-4-prop-2-enoyl-piperazin-1-yl]-1-(2-isopropyl-4-methyl-3-pyridyl)pyrido [2,3-d]pyrimidin-2-one]?
**A.** IC50 [1]: > 7.5 µM; IC50 [2]: 0.098 µM; IC50 [3]: 0.04 µM

**Q.** With `C=CC(=O)N1C[C@H](C)N(c2nc(=O)n(-c3c(C)ccnc3C(C)C)c3nc(-c4ccccc4C)c(Cl)cc23)C[C@H]1C` (atropisomer, axis not shown; (M)) [Example 92-45, (M)-6-Chloro-4-[(2S,5R)-2,5-dimethyl-4-prop-2-enoyl-piperazin-1-yl]-1-(2-isopropyl-4-methyl-3-pyridyl)-7-(o-tolyl)pyrido[2,3-d]pyrimidin-2-one] as the compound, how does the IC50 [1] read?
**A.** Its IC50 is greater than 7.5 µM.

**Q.** What about the IC50 [2] of the same compound?
**A.** The IC50 was 0.023 µM.

**Q.** What about the IC50 [3] of the same compound?
**A.** Its IC50 is 0.025 µM.

**Q.** What does the source list for `C=CC(=O)N1C[C@H](C)N(c2nc(=O)n(-c3c(C)ccnc3C(C)C)c3nc(-c4cccc(Cl)c4F)c(Cl)cc23)C[C@H]1C` (atropisomer, axis not shown; (M)) [Example 92-46, (M)-6-Chloro-7-(3-chloro-2-fluoro-phenyl)-4-[(2S,5R)-2,5-dimethyl-4-prop-2-enoyl-piperazin-1-yl]-1-(2-isopropyl-4-methyl-3-pyridyl)pyrido [2,3-d]pyrimidin-2-one]?
**A.** IC50 [1]: > 7.5 µM; IC50 [2]: 0.032 µM; IC50 [3]: 0.023 µM

**Q.** Which IC50 [1] does the source give for `C#Cc1ccccc1-c1nc2c(cc1Cl)c(N1C[C@@H](C)N(C(=O)C=C)C[C@@H]1C)nc(=O)n2-c1c(C)ccnc1C(C)C` (atropisomer, axis not shown; (M)) [Example 92-47, (M)-6-Chloro-4-[(2S,5R)-2,5-dimethyl-4-prop-2-enoyl-piperazin-1-yl]-7-(2-ethynylphenyl)-1-(2-isopropyl-4-methyl-3-pyridyl)pyrido [2,3-d]pyrimidin-2-one] here?
**A.** The IC50 was greater than 7.5 µM.

**Q.** And the IC50 [2]?
**A.** Its IC50 is 0.049 µM.

**Q.** What about the IC50 [3] of the same compound?
**A.** The IC50 was 0.057 µM.

**Q.** For `C#Cc1cccc(-c2nc3c(cc2Cl)c(N2C[C@@H](C)N(C(=O)C=C)C[C@@H]2C)nc(=O)n3-c2c(C)ccnc2C(C)C)c1` (atropisomer, axis not shown; (M)) [Example 92-48, (M)-6-Chloro-4-[(2S,5R)-2,5-dimethyl-4-prop-2-enoyl-piperazin-1-yl]-7-(3-ethynylphenyl)-1-(2-isopropyl-4-methyl-3-pyridyl)pyrido [2,3-d]pyrimidin-2-one], which IC50 [1] is on record?
**A.** The IC50 was greater than 7.5 µM.

**Q.** And the IC50 [2]?
**A.** Its IC50 is 0.365 µM.

**Q.** What about the IC50 [3] of the same compound?
**A.** Its IC50 is 0.247 µM.
